Experimental findings from article PMC9026348, “Investigation of Direct and Retro Chromone-2-Carboxamides Based Analogs of Pseudomonas aeruginosa Quorum Sensing Signal as New Anti-Biofilm Agents” (Pharmaceuticals, 2022) are described below.

The test system of data set [1] is P. aeruginosa PAO1 biofilms. Description: Anti-biofilm assay, CFU count of adherent cells. In kind it is cell-based, Pseudomonas aeruginosa PAO1. The conditions noted are these: PAO1, 48 h, relative to untreated control, mean ± SD of 3 independent experiments; for inhibition at 50 µM: Pseudomonas aeruginosa. As to the method:
The effect of all compounds was evaluated on PAO1 biofilms, grown in 24-well microplates. The antibiofilm assay used in this study is based on a low nutritive culture medium, a rather weak inoculum (10^2 CFU/mL), and a regular renewal of the culture medium (at 2, 4, 6, 20, and 24 h), in order to promote the growth of adhered cells as biofilm, instead of the growth and/or sedimentation of planktonic cells. Since the QS systems are involved in early steps of biofilm formation, compounds were added at t0. After incubation, viable cells were quantified by CFU plate counts.
The rather low concentration of 50 µM used was set up according to detected concentrations of QS molecules in CF patients’ lungs. […] For all compounds, MICs/MBCs were higher than 500 µM. To be considered active, a threshold of 50% inhibition, relative to the untreated control, was applied.
Pseudomonas aeruginosa PAO1 was obtained from the Institute Pasteur Collection (CIP 104116, Paris, France), frozen and kept at -80 °C in a 20% (v/v) glycerol stock solution. Before each experiment, two successive subcultures were prepared on trypticase soy agar and incubated for 24 h under aerobic conditions at 37 °C. Before each experiment, bacterial suspensions of 10^8 CFU/mL were prepared by adjusting OD at 640 nm to 0.150.
The bacterial enumerations were done on trypticase soy agar. The minimum biofilm broth used for biofilm formation (MBB) was prepared in sterile distilled water (SDW) and was composed of MgSO4·7H2O (0.02 g/L), FeSO4·7H2O (0.5 mg/L), Na2HPO4 (1.25 g/L), KH2PO4 (0.5 g/L), (NH4)2SO4 (0.1 g/L), and glucose (0.05 g/L) from Merck-Sigma (France).
The enumeration of adhered bacteria was carried-out according to Campanac et al. with some modifications. P. aeruginosa biofilms were grown in a 24-wells microtiter plate for 48 h. The culture medium was composed of BBM 2X (1.0 mL) and 1.0 mL of a 10^−4 M solution of tested compound dissolved in SDW (final concentration 50 µM). After inoculation with 100 µL of a 10^2 CFU/mL bacterial suspension of P. aeruginosa PAO1 (final inoculum 10 CFU/well), the microtiter plate was incubated à 37 °C. After 2 h, 4 h, 6 h, 20 h and 24 h of incubation, each well was emptied, rinsed twice with SDW, and the culture medium was renewed. After 48 h of culture, the biofilm was rinsed twice with 2.0 mL SDW. The bottom of each well was scraped with a sterile spatula and suspended in 1.0 mL of SDW. The content of each well was diluted by serial dilutions in test tubes. After inclusion of 0.9 mL of each dilution in trypticase soy agar, Petri dishes were incubated for 48 h at 37 °C. The number of colony forming units (CFUs) was counted and the inhibition percentage calculated using the following formula: Inhibition(%)=Adhered cellsControl(CFU/mL)−Adhered cellsSample(CFU/mL) /Adhered cellsControl×100

SMILES strings stand for the structures.

For orientation: melting point means the temperature, or range, at which the solid turns liquid. The term inhibition denotes how much of the control response was suppressed. Read a low inhibition as little suppression. In the case of `COc1cc(NC(=O)c2cc(=O)c3ccccc3o2)cc(OC)c1` [3t, N-(3,5-Dimethoxyphenyl)-4-oxo-4H-chromene-2-carboxamide], the melting point is 211 °C. The inhibition at 50 µM in data set [1] was less than 10%.
In turn, `O=C(Nc1cc(=O)c2ccccc2o1)c1ccccc1F` [6h, 2-Fluoro-N-(4-oxo-4H-chromen-2-yl) benzamide] displayed a melting point of 194 °C. In data set [1], this compound showed an inhibition at 50 µM of 27.8 ± 10.7%.
In the same order, the values of `O=C(Nc1cc(=O)c2ccccc2o1)c1ccccc1Br` [6j, 2-Bromo-N-(4-oxo-4H-chromen-2-yl) benzamide] are 215 to 218 °C and 36.1 ± 4.1%.
`O=C(Nc1cc(=O)c2ccccc2o1)C12CC3CC(CC(C3)C1)C2` [6y, (3R,5R,7R)-N-(4-Oxo-4H-chromen-2-yl) adamantane-1-carboxamide] displayed a melting point of 286 °C. The same compound showed an inhibition at 50 µM in data set [1] of 19.5 ± 1.8%.
`COc1ccc(NC(=O)c2cc(=O)c3ccccc3o2)cc1` [3p, N-(4-Methoxyphenyl)-4-oxo-4H-chromene-2-carboxamide]: the inhibition at 50 µM in data set [1] was 47.5 ± 5.3%.
As for `CC(C)(C)OC(=O)N1CCC(CNC(=O)c2cc(=O)c3ccccc3o2)CC1` [3′e, Tert-butyl 4-((4-oxo-4H-chromene-2-carboxamido)methyl)piperidine-1-carboxylate], the melting point came to 129 °C. Further, 50 µM produced 36 ± 28.6% inhibition in data set [1].
Regarding `O=C(Nc1cc(=O)c2ccccc2o1)c1cc([N+](=O)[O-])cc([N+](=O)[O-])c1` [6o, 3,5-Dinitro-N-(4-oxo-4H-chromen-2-yl) benzamide], the melting point was 291 °C. Further, testing at 50 µM in data set [1] gave an inhibition of 78.3 ± 4%.
In the same order, the values of `O=C(Nc1cc(=O)c2ccccc2o1)c1ccc(N2CCOCC2)cc1` [6u, 4-Morpholino-N-(4-oxo-4H-chromen-2-yl) benzamide] are 287 °C and 56.8 ± 10%.
The compound `O=C(Nc1ncccn1)c1cc(=O)c2ccccc2o1` [3v, 4-Oxo-N-(pyrimidin-2-yl)-4H-chromene-2-carboxamide] came in with a melting point of 189 °C. 50 µM produced 46 ± 7.3% inhibition in data set [1].
The compound `O=C(Nc1ccccc1F)c1cc(=O)c2ccccc2o1` [3h, N-(2-Fluorophenyl)-4-oxo-4H-chromene-2-carboxamide] gave a melting point of 225 °C. The compound also displayed an inhibition at 50 µM in data set [1] of 42.4 ± 10.4%.
`O=C(Nc1cc(=O)c2ccccc2o1)c1ccc(Br)cc1` [6g, 4-Bromo-N-(4-oxo-4H-chromen-2-yl) benzamide]: the melting point worked out at 287 °C. The compound further registered an inhibition at 50 µM in data set [1] of 56.2 ± 7.9%.
With `COc1ccc(C(=O)Nc2cc(=O)c3ccccc3o2)cc1OC` [6s, 3,4-Dimethoxy-N-(4-oxo-4H-chromen-2-yl) benzamide], the melting point came to 246 °C. Also, at 50 µM the inhibition in data set [1] was 71.9 ± 13.5%.
`CCCNC(=O)c1cc(=O)c2ccccc2o1` [3w, 4-Oxo-N-propyl-4H-chromene-2-carboxamide] came in with a melting point of 166 °C. Moreover, the inhibition at 50 µM in data set [1] was less than 10%.
In the same order, the values of `O=C(Nc1cc(=O)c2ccccc2o1)c1ncccn1` [6v, N-(4-Oxo-4H-chromen-2-yl) pyrimidine-2-carboxamide] are 215 °C and 48.8 ± 2.6%.
`O=C(Nc1ccc([N+](=O)[O-])cc1[N+](=O)[O-])c1cc(=O)c2ccccc2o1` [3n, N-(2,4-Dinitrophenyl)-4-oxo-4H-chromene-2-carboxamide] had a melting point of 330 °C. This compound displayed an inhibition at 50 µM in data set [1] of less than 10%.
On to `O=C(Nc1ccc(Br)cc1)c1cc(=O)c2ccccc2o1` [3g, N-(4-Bromophenyl)-4-oxo-4H-chromene-2-carboxamide], for which the inhibition at 50 µM in data set [1] stood at 47.2 ± 2.8%.
On to `CCN(CC)Cc1cc(NC(=O)c2cc(=O)c3ccccc3o2)ccc1O` [3′b], for which the “Biofilm Inhibition (%)” value in data set [1] (50 µM) was 35.5 ± 5.8%.
`Cc1ccc(NC(=O)c2cc(=O)c3ccccc3o2)cc1` [3b, 4-Oxo-N-(p-tolyl)-4H-chromene-2-carboxamide] returned an inhibition at 50 µM in data set [1] of 39.1 ± 5.4%.
